Laboratory results: US4305940A, “Benzamides with local anaesthetic and antiarrhythmic activity, salts, and method of preparation thereof and pharmaceutical compositions therefrom” (B.B.R. Boehringer Biochemia Robin S.p.A., priority 1979, dated 1981)

What was measured:
[1] = tested on: aconitine-induced ventricular arrhythmia; assay: Anti-arrhythmic activity, aconitine infusion; format: in vivo, Wistar rats; settings: for Aconitine i.v. necessary to induce ventricular arrhythmia: 3 min before aconitine 10 mcg/kg/min; for Anti-arrhythmic activity compared with lidocaine: times more active than lidocaine; for Anti-arrhythmic activity compared with quinidine: times more active than quinidine
Experimental: (§1) The data reported hereinbelow relate in every instance to the hydrochloride salts of the individual compounds.
This determination has been made in Wistar rats, anaesthetized with ethylurethane, (1 g/kg i.p.), according to the method of B. Vargaftig and J. L. Coigner (European Journal Pharmacology, 6, 49, 1969). The compounds dissolved in physiological saline solution, are injected intravenously three minutes prior to the infusion of aconitine, (10 mcg/kg/min.). The extent of anti-arrhythmic activity is determined quantitatively by determining the amount of aconitine necessary to induce ventricular arrhythmia.

[2] = tested on: reflux of contraction of the lower limbs (lumbar plexus); assay: Anaesthesia by conduction (lumbar plexus); format: in vivo, frogs; settings: for Conduction anaesthesia DL50/t' / Conduction anaesthesia 1/t'max. (c = 1%) with respect to lidocaine: c = 1%; for Conduction anaesthesia DL50/t': DL50 i.p.; for Conduction anaesthesia 1/t'max. (c = 1%) with respect to lidocaine / Conduction anaesthesia DL50/t' relative to lidocaine: lidocaine = 1
Source text: Anaesthesia by conduction has been determined on frogs according to the method of E. Bulbring and I. Wajda (Journal Pharmacol. Exper. Ther., 85, 78, 1945). The compounds dissolved in physiological saline solution are introduced into the cavity obtained by a transversal incision in the abdomen and separating the viscera in order to expose the lumbar plexus. The period of time necessary to eliminate the reflux of contraction of the lower limbs stimulated by immersion of both posterior legs into hydrochloric acid of increasing concentration between 0.05-0.1-0.2 N for a period not in excess of ten seconds, at intervals of one minute is determined. The extent of anaesthesia of conduction has been determined by measuring the period of time required for each compound in three different concentrations, 0.2%-0.5%-1.0% in order to abolish the reflex of contraction with the concentration of hydrochloric acid indicated hereinabove.

[3] = tested on: Swiss rats; assay: in vivo; settings: lidocaine = 1
Source text: (§2) The behavior of the animals has then been followed for a period of five days. The DL50 has been determined according to the method of I. T. Litchfield and F. Wilcoxon, (J. Pharmacol. Exper. Ther., 96, 99, 1949). The compound numbers in Table II correspond to the numbers in Table I.

[4] = in vivo; settings: rat, in vivo, ip; 5 days; hydrochloride salts; range in parentheses; read-out: DL50 i.p.
Source text: as §2

[5] = tested on: corneal reflux; assay: Surface anaesthesia (corneal reflux, conjunctival sac); settings: for Surface anaesthesia DL50/CE50: analogous to therapeutic index, DL50 i.p.; for Surface anaesthesia CE50: concentration in percent achieving 50% of total responses, pH 7 saline, hydrochloride salts; for Surface anaesthesia activity with respect to lidocaine: lidocaine = 1
Experimental: as §1
The surface anaesthesia has been determined in rabbits according to the method of M. R. A. Change and H. Lobstein (J. Pharmacol. Exper. Ther., 82, 203, 1944). The compounds dissolved in physiological saline solution of pH 7 were injected into the conjunctival sac and the corneal reflux was induced with the brush of Frey six times at intervals of five minutes for a total period of 40 minutes.

[6] = tested on: response to skin puncture; assay: Anaesthesia by infiltration (subcutaneous, back puncture); format: in vivo, guinea pigs; settings: for Infiltration anaesthesia DL50/CE50: analogous to therapeutic index, DL50 i.p.; for Infiltration anaesthesia CE50: concentration in percent achieving 50% of total responses, hydrochloride salts; for Infiltration anaesthesia DL50/CE50 relative to lidocaine / Infiltration anaesthesia activity with respect to lidocaine: lidocaine = 1
Experimental: The anaesthesia by infiltration has been determined in guinea pigs according to the method of E. Bulbring and I. Wajda, (Journal of Pharmacol. Exper. Ther. 85, 78, 1945). In each experiment, four doses of the substance in 0.25 cc of physiological saline solution is injected subcutaneously on the back after removal of hair. After five minutes, each animal is punctured six times at intervals of […].
The test was repeated every five minutes for a period of 30 minutes. The extent of anaesthesia by infiltration was measured quantitatively by determining the sum of the instances in which the animal remained immobile during the thirty minute period on 36 possible blinks.

| SMILES | Aconitine i.v. necessary to induce ventricular arrhythmia ([1]; 1.0 mg/kg i.v.) | Aconitine i.v. necessary to induce ventricular arrhythmia ([1]; 3.0 mg/kg i.v.) | Aconitine i.v. necessary to induce ventricular arrhythmia ([1]; 8.0 mg/kg i.v.) | Conduction anaesthesia DL50/t' [2] | Conduction anaesthesia 1/t'max. (c = 1%) with respect to lidocaine [2] | Conduction anaesthesia DL50/t' relative to lidocaine [2] | DL50 i.p. relative to lidocaine [3] | LD50 at 120 h [4] | Surface anaesthesia DL50/CE50 [5] | Surface anaesthesia CE50 [5] | Surface anaesthesia activity with respect to lidocaine [5] | Infiltration anaesthesia DL50/CE50 [6] | Infiltration anaesthesia CE50 [6] | Infiltration anaesthesia DL50/CE50 relative to lidocaine [6] | Infiltration anaesthesia activity with respect to lidocaine [6] | Aconitine i.v. necessary to induce ventricular arrhythmia ([1]; 0.6 mg/kg i.v.) | Anti-arrhythmic activity compared with lidocaine [1] | Anti-arrhythmic activity compared with quinidine [1] |
| --- | --- | --- | --- | --- | --- | --- | --- | --- | --- | --- | --- | --- | --- | --- | --- | --- | --- | --- |
| CCN(CC)Cc1ccc(C(=O)Nc2c(C)cccc2C)cc1 [Compound 3] | 38 ± 5 µg/kg | 39 ± 6 µg/kg | 47 ± 7 µg/kg | 9 | 1.2 | 0.69 | 0.58 | 82.5 mg/kg | 17 | 4.78% | 0.48 | 10 | 8.02% | 0.05 | 0.09 |  |  |  |
| CCN(CC)Cc1ccccc1C(=O)Nc1c(C)cccc1C(=O)OC [Compound 14] | 60 ± 7 µg/kg | 81 ± 7 µg/kg |  | 5 | 2.2 | 0.38 | 0.17 | 24.7 mg/kg | 60 | 0.41% | 5.61 | 57 | 0.43% | 0.30 | 1.74 | 45 ± 8 µg/kg | at least twenty times more active than lidocaine | at least ten times more active than quinidine |
| CCN(CC)Cc1ccccc1C(=O)Nc1c(C)cccc1Cl [Compound 13] | 65 ± 7 µg/kg | 67 ± 7 µg/kg |  | 16 | 11.1 | 1.23 | 0.11 | 16.3 mg/kg | 27 | 0.60% | 3.83 | 58 | 0.28% | 0.31 | 2.68 | 48 ± 6 µg/kg | at least twenty times more active than lidocaine | at least ten times more active than quinidine |
